These results are taken from US20250154157A1, “HETEROCYCLIC COMPOUNDS USEFUL FOR TREATING A ERK5-MEDIATED DISEASE” (Cancer Research Technology Limited, priority 2022, published 2025).

What all share (format): cell-based
Test [1] relates to EMT, angiogenesis and pro-tumour inflammation genes (N-cadherin, cytokeratin, B1-integrin, VEGF, IL6, IL1b, E-cadherin). The experiment in a line: qRT-PCR, mRNA levels of EMT, angiogenesis and inflammatory regulators in TNBC cell lines (FIG. 11). From the text:
qRT-PCR: Total RNA was isolated from cells using TRIZOL and/or the miRNeasy mini kit (Qiagen). We carried out cDNA synthesis as previously described by Green, D., Eyre, H., Singh, A. et al (Targeting the MAPK7/MMP9 axis for metastasis in primary bone cancer. Oncogene 39, 5553-5569 (2020)). We performed qPCR using the SYBR Green I core kit (Eurogentec). PCR products were detected in the ABI PRISM® 7700 sequence detection system (Thermo Fisher Scientific). We analysed results using the […]. Gene expression was normalised to PGK1 or ACTB.
Relative mRNA levels, compared to internal control PGK1 or ACTB, in three triple negative breast cancer cell lines: MDA-MB-231, MDA-MB-468 and SUM159.
For orientation: Quantitative PCR measures a nucleic acid by following its amplification.

In test [2] the test system is TNBC cells (MDA-MB-231, MDA-MB-468 and SUM159). The experiment in a line: Immunofluorescence, morphology of TNBC cells (FIG. 10). Conditions: 1 μM OS1 or 2.5 μM AX15836; MDA-MB-231, MDA-MB-468, SUM159. On the procedure:
(§1) Cells were seeded and treated. Media was aspirated, cells were washed with PBS and subsequently fixed in 10% formalin for 10 minutes. Fixed cells were washed in PBS and then permeablised with 0.1% (v/v) Triton-100 in PBS for 10 minutes. Cells were washed with PBS and the non-specific binding sites were blocked by incubating with 1% BSA for 30 minutes. Targets of interested were identified by incubating with 100 μl of primary antibody diluted in 1% BSA (see table) overnight at 4° C. After washing with PBS, samples were further incubated with species specific secondary antibody coupled to fluorescent tags (see antibody table) for 1 hour in the dark at room temperature. Some samples were further incubated with 100 μl of 1:200 phalloidin (Invitrogen, A12381) in 1% BSA for 2 hours at room temperature to identify actin filament structures. The EZ-slides casing was dismantled as described in manufacturer's instruction and slides were washed in distilled H2O. Samples were incubated with one drop of Mounting Medium with DAPI (abcam) for 5 minutes in the dark at room temperature to visualise the nuclei. A coverslip was added to each slide and allowed to dry at room temperature. Images were acquired on a 3D-Histech Pannoramic-250 microscope slide-scanner using a 20×/0.80 Plan Apochromat objective (Zeiss) and the DAPI, FITC and TRITC filter sets. […] Images were then processed and analysed using ImageJ. […]

Test [3] concerns the target T1, BRD4 (Homo sapiens, UniProt O60885). Nature of the test: Immunoblotting, comparison with Example 7 of WO2021061894 in MDA-MB-468 cells (FIGS. 12 and 13): BRD4. Conditions: 48 hours after a single dose, Comparative Example 7 at 5 μM. Also on record: endogenous in cells; host or cells: MDA-MB-231, MDA-MB-468, SUM159. On the procedure:
(§2) We extracted proteins in RIPA assay buffer containing protease and phosphatase inhibitors. We resolved extracts (30 μg) by SDS/PAGE and electrophoretically transferred to an Immun-Blot® PVDF membrane (Bio-Rad). Membranes were saturated in 3% non-fat dry milk or 3% BSA and probed overnight at 4° C. with antibodies (1:1,000 dilution unless otherwise indicated) to ERK5, BRD4, MEK5 and β-actin. We detected immunocomplexes by enhanced chemiluminescence with IgG coupled to horseradish peroxidase as the secondary anti-rabbit and anti-mouse antibodies (Abcam).
(§3) OS1 and OS11 degrade EKR5 at lower concentrations than Comparative Example 7. OS1 is efficacious at degrading ERK5 at doses of 0.1 μM and OS11 at 0.01 μM. In contrast, a dose of 5 μM of Comparative Example 7 is required to achieve analogous ERK5 degradation to 0.1 μM OS1 or 0.01 μM OS11.
For orientation: A western blot detects proteins with antibodies after separation by electrophoresis.

The target of another test is T2, p-ERK5 (Homo sapiens, UniProt Q13164).
T2 construct: endogenous in cells; host or cells: MDA-MB-231, MDA-MB-468, SUM159
Nature of the test: Immunoblotting in 3 TNBC cell lines (FIG. 8): phospho-ERK5 levels. The note with it: at higher doses. On the procedure:
(§4) We extracted proteins in RIPA assay buffer containing protease and phosphatase inhibitors. We resolved extracts (30 μg) by SDS/PAGE and electrophoretically transferred to an Immun-Blot® PVDF membrane (Bio-Rad). Membranes were saturated in 3% non-fat dry milk or 3% BSA and probed overnight at 4° C. with antibodies (1:1,000 dilution unless otherwise indicated) to ERK5, P-ERK5, ERK1/2, BRD4, MEK5 and β-actin. We detected immunocomplexes by enhanced chemiluminescence with IgG coupled to horseradish peroxidase as the secondary anti-rabbit and anti-mouse antibodies (Abcam).
(§5) Left hand side panels are Western blot images, showing the relative expression of proteins in response to a range of doses of OS1. Right hand side panels are graphs quantifying the western blot images to show ERK5, phospho-ERK5, ERK1/2 and BRD4 protein levels relative to the loading control β-actin.

In test [4] the test system is ERK1/2. The experiment in a line: Repeated dosing of OS1 up to 2 weeks, immunoblotting (FIG. 9): ERK1/2. Conditions: 1 μM every 48 h for up to two weeks, TNBC cell lines.
Test [5] concerns the target T1, BRD4. The experiment in a line: Immunoblotting, specificity testing in 3 TNBC cell lines (FIG. 8): BRD4 levels. The note with it: range of doses. Also on record: endogenous in cells. On the procedure:
as §4, §5

In test [6] the target is T3, ERK5 (Homo sapiens, UniProt Q13164). The experiment in a line: Immunoblotting, 8 point dose response to OS1 in 3 TNBC cell lines (FIG. 8): ERK5 levels. Also noted: endogenous in cells; host or cells: MDA-MB-231, MDA-MB-468, SUM159. As for the experimental part:
as §4, §5

In test [7] the target is T3, ERK5. The experiment in a line: Immunofluorescence, ERK5 staining in TNBC cells (FIG. 10). Also on record: endogenous in cells; host or cells: MDA-MB-231, MDA-MB-468, SUM159. The note with it: 1 μM OS1, TNBC cell lines. On the procedure:
as §1

Test [8] deals with T3, ERK5. The experiment in a line: Immunoblotting, comparison with Example 7 of WO2021061894 in MDA-MB-468 cells (FIGS. 12 and 13): ERK5. Also on record: endogenous in cells; host or cells: MDA-MB-468. The note with it: 48 hours after a single dose, relative to b-actin. As for the experimental part: as §2, §3
The target of the next test is T4, MEK5 (Homo sapiens, UniProt Q13163).
T4 construct: endogenous in cells; host or cells: MDA-MB-231, MDA-MB-468, SUM159
T4 sequence (Q13163 1-448): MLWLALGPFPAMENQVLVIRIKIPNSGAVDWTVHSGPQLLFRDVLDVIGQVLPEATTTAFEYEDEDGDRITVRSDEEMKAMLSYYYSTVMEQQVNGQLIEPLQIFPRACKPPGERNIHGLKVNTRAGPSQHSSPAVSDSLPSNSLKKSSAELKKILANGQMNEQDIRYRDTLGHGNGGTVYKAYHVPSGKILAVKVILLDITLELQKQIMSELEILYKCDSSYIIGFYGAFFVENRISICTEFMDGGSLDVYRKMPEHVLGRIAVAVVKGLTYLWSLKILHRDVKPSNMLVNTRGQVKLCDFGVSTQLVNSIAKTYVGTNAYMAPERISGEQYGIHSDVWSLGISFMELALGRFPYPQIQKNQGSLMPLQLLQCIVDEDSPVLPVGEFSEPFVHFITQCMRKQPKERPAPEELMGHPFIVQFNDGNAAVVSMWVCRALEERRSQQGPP
Nature of the test: Repeated dosing of OS1 up to 2 weeks, immunoblotting (FIG. 9): MEK5. The note with it: 1 μM every 48 h for up to two weeks, TNBC cell lines. As for the experimental part: as §2

Test [9] has as its target T1, BRD4. The experiment in a line: Repeated dosing of OS1 up to 2 weeks, immunoblotting (FIG. 9): BRD4. Also on record: endogenous in cells. The note with it: 1 μM every 48 h for up to two weeks, TNBC cell lines. On the procedure:
as §2

Test [10] has as its system ERK1/2. The experiment in a line: Immunoblotting, specificity testing in 3 TNBC cell lines (FIG. 8): ERK1/2 levels. Conditions: range of doses. As for the experimental part: as §4, §5
Where [11] appears, read: 24 h treatment, mRNA relative to PGK1 or ACTB, three TNBC cell lines.

Each structure is given as a SMILES string.

T3 sequence (Q13164 whole entry): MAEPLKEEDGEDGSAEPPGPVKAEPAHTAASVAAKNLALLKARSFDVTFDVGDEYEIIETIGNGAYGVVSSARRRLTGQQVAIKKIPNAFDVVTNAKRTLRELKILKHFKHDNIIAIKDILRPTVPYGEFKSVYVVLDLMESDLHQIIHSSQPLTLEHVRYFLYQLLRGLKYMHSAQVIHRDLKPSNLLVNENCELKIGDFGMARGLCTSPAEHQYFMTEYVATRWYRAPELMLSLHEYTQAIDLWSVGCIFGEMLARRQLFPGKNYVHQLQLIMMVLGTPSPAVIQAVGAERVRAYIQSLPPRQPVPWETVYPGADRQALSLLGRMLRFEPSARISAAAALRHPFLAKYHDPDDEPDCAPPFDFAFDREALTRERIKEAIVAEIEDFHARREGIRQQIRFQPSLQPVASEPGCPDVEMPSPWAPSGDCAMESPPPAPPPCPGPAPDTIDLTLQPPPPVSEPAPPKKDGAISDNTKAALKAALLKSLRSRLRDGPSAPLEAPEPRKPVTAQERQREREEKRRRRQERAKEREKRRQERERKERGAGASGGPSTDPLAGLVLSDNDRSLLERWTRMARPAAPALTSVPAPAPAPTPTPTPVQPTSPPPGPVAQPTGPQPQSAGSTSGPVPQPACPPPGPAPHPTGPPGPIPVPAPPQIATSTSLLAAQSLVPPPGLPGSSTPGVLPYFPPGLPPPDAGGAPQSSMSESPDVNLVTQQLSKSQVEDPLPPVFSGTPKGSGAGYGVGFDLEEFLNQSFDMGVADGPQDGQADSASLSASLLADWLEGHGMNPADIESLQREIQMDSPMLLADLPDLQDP
T2 sequence (Q13164 whole entry): as above

Regarding `CCOc1cc(C(=O)N2CCC(N3CCN(C)CC3)CC2)ccc1Nc1ncc2c(n1)N(S(C)(=O)=O)c1ccccc1C(=O)N2C` [AX15836, 5,11-Dihydro-2-[[2-ethoxy-4-[[4-(4-methyl-1-piperazinyl)-1-piperidinyl]carbonyl]phenyl]amino]-5-methyl,11-(methylsulfonyl)-6H-pyrimido[4,5-b][1,4]benzodiazepin-6-one, reference compound], the “expression of genes that promote EMT, migration and metastatic behaviour (N-cadherin, cytokeratin, B1-integrin), angiogenesis (VEGF) and pro-tumour inflammation (IL6, IL1b)” value in [1] (setting [11]) is reported as “not”. Also, the “effect on morphology of TNBC cells” value in test [2] is reported as “does not”.
In the case of `CCOc1cc(C(=O)N2CCC(N3CCN(CCCCCc4cccc5c4C(=O)N(C4CCC(=O)NC4=O)C5=O)CC3)CC2)ccc1Nc1ncc2c(n1)N(S(C)(=O)=O)c1ccccc1C(=O)N2C` (stereo not drawn) [OS1, 2-(2,6-Dioxopiperidin-3-yl)-4-(5-(4-(1-(3-ethoxy-4-((5-methyl-11-(methylsulfonyl)-6-oxo-6,11-dihydro-5H-benzo[e]pyrimido[5,4-b][1,4]diazepin-2-yl)amino)benzoyl)piperidin-4-yl)piperazin-1-yl)pentyl)isoindoline-1,3-dione], on BRD4 [3], the “degradation of off-target BRD4” value is “do not cause degradation”. Moreover, on p-ERK5, the “kinase inhibitor activity (p-ERK5 on immunoblot)” value is given as “reduction in p-ERK5”. For the same molecule, the “effect of repeated dosing on ERK1/2” value with ERK1/2 [4] is recorded as “no effect”. In addition, the “off target effects on known off-target of literature ERK5 inhibitors (BRD4)” value on BRD4 [5] is on record as “no off target effects”. Besides, at ERK5 [6] (TNBC cell lines), the “dose inducing the hook effect” value was 10 µM and the “most effective dose for ERK5 degradation” value amounted to 1 µM. Also, at ERK5 [6] (range of TNBC cell lines (MDA-MB-231, MDA-MB-468, SUM159), western blot relative to β-actin), the ERK5 degraded was above 90%. Moreover, the “dose most effective in affecting gene expression” value in [1] (0.1 or 1 μM tested, 24 h) is 1 µM. Also, in test [1] (setting [11]), the “expression of genes that block EMT, migration and metastatic behaviour (E-cadherin)” value is given as “increase in expression”; the “expression of genes that promote EMT, migration and metastatic behaviour (N-cadherin, cytokeratin, B1-integrin), angiogenesis (VEGF) and pro-tumour inflammation (IL6, IL1b)” value is listed as “induces a loss of expression”. The “effect on morphology of TNBC cells” value in test [2] is on record as “affects morphology”. Besides, the “ERK5 staining (green), immunofluorescence” value at ERK5 [7] is given as “loss of ERK5 staining”. For the same molecule, the “dose efficacious at degrading ERK5 (analogous ERK5 degradation)” value on ERK5 [8] is 0.1 μM. The “effect of repeated dosing on MEK5” value at MEK5 was “unaffected”. In addition, the “effect of repeated dosing on BRD4” value on BRD4 [9] is on record as “no effect”. Besides, in the test on ERK1/2 [10], the “off target effects on structurally similar proteins (ERK1/2)” value was “no off target effects”.
